Measurements as given in US9382228B2 (priority 2013, dated 2016).

Columns and labels:
[1] = molecular target: unphosphorylated c-KIT kinase (uKIT, Seq. ID no. 2) (Homo sapiens, UniProt P10721); experiment: biochemical; settings: uKIT, enzymatic assay, ATP 2000 μM
Experimental: uKit kinase (Seq. ID No. 2) Assay
In this assay, the oxidation of NADH (thus the decrease at A340 nm) was continuously monitored spectrophometrically. […] The inhibition reaction was started by mixing serial diluted test compound with the above reaction mixture. The absorption at 340 nm was monitored continuously for 4 hours at 30° C. on Synergy 2 plate reader (BioTech).

[2] = molecular target: unphosphorylated PDGFRβ kinase (uPDGFRβ, Seq. ID No. 3) (Homo sapiens, UniProt P09619); experiment: biochemical; settings: uPDGFRb, enzymatic assay, ATP 500 μM
[3] = molecular target: T1, unphosphorylated c-FMS kinase (uFMS, Seq. ID no. 1) (Homo sapiens, UniProt P07333); experiment: biochemical; settings: uFMS, enzymatic assay, ATP 500 μM
T1 sequence (P07333 538-972): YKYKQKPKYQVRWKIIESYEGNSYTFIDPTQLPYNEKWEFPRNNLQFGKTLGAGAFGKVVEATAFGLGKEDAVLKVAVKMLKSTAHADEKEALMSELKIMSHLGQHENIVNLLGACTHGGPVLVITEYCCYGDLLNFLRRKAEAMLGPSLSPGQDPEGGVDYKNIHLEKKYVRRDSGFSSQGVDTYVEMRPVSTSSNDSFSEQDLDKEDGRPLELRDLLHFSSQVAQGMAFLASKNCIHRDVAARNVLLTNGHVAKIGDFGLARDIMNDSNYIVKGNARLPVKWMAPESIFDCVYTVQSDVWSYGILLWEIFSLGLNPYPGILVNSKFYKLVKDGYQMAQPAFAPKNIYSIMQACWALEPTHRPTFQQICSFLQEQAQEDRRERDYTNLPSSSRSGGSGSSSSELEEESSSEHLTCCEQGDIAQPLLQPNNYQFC
Experimental: In this assay, the oxidation of NADH (thus the decrease at A340 nm) was continuously monitored spectrophometrically. The reaction mixture (100 μL) contained FMS (purchased from Millipore) (10 nM), polyE4Y (1 mg/mL), MgCl2 (10 mM), pyruvate kinase (4 units), lactate dehydrogenase (0.7 units), phosphoenol pyruvate (1 mM), NADH (0.28 mM) and ATP (500 μM) in 90 mM Tris buffer containing 0.2% octyl-glucoside and 1% DMSO, pH 7.5. The inhibition reaction was started by mixing serial diluted test compound with the above reaction mixture. The absorption at 340 nm was monitored continuously for 4 hours at 30° C. on Synergy 2 plate reader. The reaction rate was calculated using the 3 to 4 h time frame. Percent inhibition was obtained by comparison of reaction rate with that of a control (i.e. in the absence of test compound). IC50 values were calculated from a series of percent inhibition values determined at a range of inhibitor concentrations using software routines as implemented in the GraphPad Prism software package.

osteoclast precursors = experiment: cells; format: cell-based; settings: read-out: Osteoclast assay
Experimental: Osteoclast Tartrate-Resistant Acid Phosphatase Assay
Diluted compound was transferred to a 384-well black clear bottom plate. Two-thousand five hundred osteoclast precursors (Lonza, Walkersville, Md.) were added per well in growth media containing Receptor Activator of Nuclear Factor Kappa-beta ligand (RANKL) and M-CSF (R&D Systems, Minneapolis, Minn.). […] Tartrate-resistant acid phosphatase activity in the supernatant samples was determined using an acid phosphatase assay kit (Sigma, St. Louis, Mo.). Absorbance was measured at 550 nm using a plate reader. Data was analyzed using Prism software (Graphpad, San Diego, Calif.) to calculate IC50 values.

M-NFS-60 cells = experiment: cells; settings: 67 h, read-out: M-NFS-60 cell proliferation
Experimental: M-NFS-6 Cell Proliferation Assay
A serial dilution of test compound was dispensed into a 384-well black clear bottom plate (Corning, Corning, N.Y.). Two thousand five hundred cells were added per well in 50 μL complete growth medium. […] IC50 values were calculated from a series of percent inhibition values determined at a range of inhibitor concentrations using software routines as implemented in the GraphPad Prism software package.

Sequence of unphosphorylated PDGFRβ kinase (uPDGFRβ, Seq. ID No. 3) (P09619 557-1106): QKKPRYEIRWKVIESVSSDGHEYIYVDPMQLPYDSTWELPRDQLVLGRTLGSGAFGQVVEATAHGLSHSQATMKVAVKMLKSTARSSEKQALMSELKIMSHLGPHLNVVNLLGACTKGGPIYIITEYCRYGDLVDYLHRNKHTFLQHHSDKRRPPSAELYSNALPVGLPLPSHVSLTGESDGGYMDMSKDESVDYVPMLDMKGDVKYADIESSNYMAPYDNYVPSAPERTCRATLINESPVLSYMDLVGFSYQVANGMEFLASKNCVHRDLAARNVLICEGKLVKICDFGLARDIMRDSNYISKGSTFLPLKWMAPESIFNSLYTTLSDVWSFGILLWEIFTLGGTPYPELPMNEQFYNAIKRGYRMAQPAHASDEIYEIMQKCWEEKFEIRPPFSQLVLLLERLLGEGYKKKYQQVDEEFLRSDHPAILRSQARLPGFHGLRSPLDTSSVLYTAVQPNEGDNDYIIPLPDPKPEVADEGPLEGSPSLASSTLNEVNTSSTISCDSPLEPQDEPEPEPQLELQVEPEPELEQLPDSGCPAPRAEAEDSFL
Sequence of unphosphorylated c-KIT kinase (uKIT, Seq. ID no. 2) (P10721 with tags, fused parts or gaps): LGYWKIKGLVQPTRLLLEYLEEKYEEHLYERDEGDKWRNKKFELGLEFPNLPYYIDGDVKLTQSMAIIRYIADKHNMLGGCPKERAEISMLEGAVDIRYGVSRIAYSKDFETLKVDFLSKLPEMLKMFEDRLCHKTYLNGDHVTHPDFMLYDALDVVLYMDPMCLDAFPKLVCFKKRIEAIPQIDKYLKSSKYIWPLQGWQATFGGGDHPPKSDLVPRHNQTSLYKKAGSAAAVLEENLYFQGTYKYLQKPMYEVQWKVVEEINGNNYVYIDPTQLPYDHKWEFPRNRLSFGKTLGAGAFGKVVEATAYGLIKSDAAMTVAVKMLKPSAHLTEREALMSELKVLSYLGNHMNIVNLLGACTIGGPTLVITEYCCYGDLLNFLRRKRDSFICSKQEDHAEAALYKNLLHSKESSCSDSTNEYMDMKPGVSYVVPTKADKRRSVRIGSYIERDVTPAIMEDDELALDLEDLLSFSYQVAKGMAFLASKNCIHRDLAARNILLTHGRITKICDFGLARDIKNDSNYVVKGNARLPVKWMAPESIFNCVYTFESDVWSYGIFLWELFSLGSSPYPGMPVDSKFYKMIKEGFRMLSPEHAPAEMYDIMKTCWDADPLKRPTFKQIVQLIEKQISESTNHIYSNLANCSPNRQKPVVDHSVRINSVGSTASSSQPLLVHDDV

SMILES | IC50 [1] [nM] | IC50 [2] [nM] | IC50 [3] [nM] | IC50 (osteoclast precursors) [nM] | IC50 (M-NFS-60 cells) [nM]
Cc1nc(NC(=O)NC(=O)C(C)(C)C)ccc1Oc1ccnc(-c2ccc(C3CCN(C)CC3)cc2)c1 [Example 109, N-((6-methyl-5-((2-(4-(1-methylpiperidin-4-yl)phenyl)pyridin-4-yl)oxy)pyridin-2-yl)carbamoyl)pivalamide] | 100 to 1000 | 100 to 1000 | < 10 | 10 to 100 | < 10
Cc1cn(-c2cc(Oc3ccc(NC(=O)NC(=O)[C@@H]4C[C@H]5CC[C@@H]4O5)nc3C)ccn2)cn1 (relative stereo) [Example 137, exo-N-((6-methyl-5-((2-(4-methyl-1H-imidazol-1-yl)pyridin-4-yl)oxy)pyridin-2-yl)carbamoyl)-7-oxabicyclo[2.2.1]heptane-2-carboxamide] | > 1000 | > 1000 | 10 to 100 | 10 to 100 | 100 to 1000
Cc1ccc(-c2cc(Oc3ccc(NC(=O)NC(=O)C4CCOC4)nc3)ccn2)cn1 (centres unmarked) [Example 89, N-((5-((6′-methyl-[2,3′-bipyridin]-4-yl)oxy)pyridin-2-yl)carbamoyl)tetrahydrofuran-3-carboxamide] | > 1000 | > 1000 | 10 to 100 | 10 to 100 | 10 to 100
CCC(=O)NC(=O)Nc1ccc(Oc2ccnc(-c3cn(C)cn3)c2)cn1 [Example 138, N-((5-((2-(1-methyl-1H-imidazol-4-yl)pyridin-4-yl)oxy)pyridin-2-yl)carbamoyl)propionamide] | > 1000 | > 1000 | 100 to 1000 | 10 to 100 | 100 to 1000
CC(C)(C)C(=O)NC(=O)Nc1ccc(Oc2ccnc(-c3ccc(C(F)(F)F)nc3)c2)cn1 [Example 94, N-((5-((6′-(trifluoromethyl)-[2,3′-bipyridin]-4-yl)oxy)pyridin-2-yl)carbamoyl)pivalamide] | > 1000 | > 1000 | < 10 | 10 to 100 | 10 to 100
COC(C)(C)C(=O)NC(=O)Nc1ccc(Oc2ccnc(-c3ccc(C#N)nc3)c2)c(C)n1 [Example 110, N-((5-((6′-cyano-[2,3′-bipyridin]-4-yl)oxy)-6-methylpyridin-2-yl)carbamoyl)-2-methoxy-2-methylpropanamide] | > 1000 | > 1000 | 10 to 100 | 10 to 100 | 100 to 1000
CC(C)(C)C(=O)NC(=O)Nc1ccc(Oc2ccnc(-c3cncnc3)c2)cn1 [Example 90, N-((5-((2-(pyrimidin-5-yl)pyridin-4-yl)oxy)pyridin-2-yl)carbamoyl)pivalamide] | > 1000 | > 1000 | 10 to 100 | 10 to 100 | > 1000
CC(C)(C)C(=O)NC(=O)Nc1ccc(Oc2ccnc(-c3ccc(N)nc3)c2)cn1 [Example 106, N-((5-((6′-amino-[2,3′-bipyridin]-4-yl)oxy)pyridin-2-yl)carbamoyl)pivalamide] | 100 to 1000 | > 1000 | < 10 | < 10 | < 10
Cn1cc(-c2cc(Oc3ccc(NC(=O)NC(=O)C4CCOCC4)nc3)ccn2)cn1 [Example 68, N-((5-((2-(1-methyl-1H-pyrazol-4-yl)pyridin-4-yl)oxy)pyridin-2-yl)carbamoyl)tetrahydro-2H-pyran-4-carboxamide] | 100 to 1000 | 100 to 1000 | < 10 | < 10 | 10 to 100
COC1(C(=O)NC(=O)Nc2ccc(Oc3ccnc(-c4cnc(C)s4)c3)cn2)CCCC1 [Example 149, 1-methoxy-N-((5-((2-(2-methylthiazol-5-yl)pyridin-4-yl)oxy)pyridin-2-yl)carbamoyl)cyclopentanecarboxamide] | 100 to 1000 | 100 to 1000 | < 10 | 10 to 100 | 10 to 100
CCc1nc(NC(=O)NC(=O)C2(OC)CC2)ccc1Oc1ccnc(-c2cnn(C)c2)c1 [Example 141, N-((6-ethyl-5-((2-(1-methyl-1H-pyrazol-4-yl)pyridin-4-yl)oxy)pyridin-2-yl)carbamoyl)-1-methoxycyclopropanecarboxamide] | > 1000 | > 1000 | 10 to 100 | 10 to 100 | 100 to 1000
Cc1ncc(-c2cc(Oc3ccc(NC(=O)NC(=O)C4(C)CCOCC4)nc3)ccn2)o1 [Example 163, 4-methyl-N-((5-((2-(2-methyloxazol-5-yl)pyridin-4-yl)oxy)pyridin-2-yl)carbamoyl)tetrahydro-2H-pyran-4-carboxamide] | 100 to 1000 | > 1000 | 10 to 100 | 10 to 100 | 10 to 100
Cc1cn(-c2cc(Oc3ccc(NC(=O)NC(=O)C4(C)CCOCC4)nc3)ccn2)cn1 [Example 157, 4-methyl-N-((5-((2-(4-methyl-1H-imidazol-1-yl)pyridin-4-yl)oxy)pyridin-2-yl)carbamoyl)tetrahydro-2H-pyran-4-carboxamide] | 100 to 1000 | 100 to 1000 | 10 to 100 | 10 to 100 | 100 to 1000
COC1(C(=O)NC(=O)Nc2ccc(Oc3ccnc(-c4ccnc(C)c4)c3)cn2)CCCC1 [Example 168, 1-methoxy-N-((5-((2′-methyl-[2,4′-bipyridin]-4-yl)oxy)pyridin-2-yl)carbamoyl)cyclopentanecarboxamide] | 100 to 1000 | 100 to 1000 | < 10 | 10 to 100 | 10 to 100

Second part, led by results:

IC50 [1] [nM] | IC50 [2] [nM] | IC50 [3] [nM] | IC50 (osteoclast precursors) [nM] | SMILES | IC50 (M-NFS-60 cells) [nM]
100 to 1000 | > 1000 | < 10 | 10 to 100 | COC1(C(=O)NC(=O)Nc2ccc(Oc3ccnc(-c4cnc(C)s4)c3)cn2)CC1 [Example 155, 1-methoxy-N-((5-((2-(2-methylthiazol-5-yl)pyridin-4-yl)oxy)pyridin-2-yl)carbamoyl)cyclopropanecarboxamide] | 10 to 100
< 10 | 10 to 100 | < 10 | < 10 | Cn1cc(-c2cc(Oc3ccc(NC(=O)NC(=O)C4CCCCC4)nc3)ccn2)cn1 [Example 67, N-((5-((2-(1-methyl-1H-pyrazol-4-yl)pyridin-4-yl)oxy)pyridin-2-yl)carbamoyl)cyclohexanecarboxamide] | < 10
10 to 100 | 10 to 100 | < 10 | 100 to 1000 | Cc1nc(NC(=O)NC(=O)C23CC4CC(CC(C4)C2)C3)ccc1Oc1ccnc(-c2cnn(C)c2)c1 [Example 37, N-((6-methyl-5-((2-(1-methyl-1H-pyrazol-4-yl)pyridin-4-yl)oxy)pyridin-2-yl)carbamoyl)adamantane-1-carboxamide] | 10 to 100
< 10 | 100 to 1000 | < 10 | < 10 | Cn1cc(-c2cc(Oc3ccc(NC(=O)NC(=O)C4CCCC4)nc3)ccn2)cn1 [Example 65, N-((5-((2-(1-methyl-1H-pyrazol-4-yl)pyridin-4-yl)oxy)pyridin-2-yl)carbamoyl)cyclopentanecarboxamide] | < 10
< 10 | 10 to 100 | < 10 | 10 to 100 | Cn1cc(-c2cc(Oc3ccc(NC(=O)NC(=O)C4CC5CCC4C5)nc3)ccn2)cn1 (centres unmarked) [Example 64, N-((5-((2-(1-methyl-1H-pyrazol-4-yl)pyridin-4-yl)oxy)pyridin-2-yl)carbamoyl)bicyclo[2.2.1]heptane-2-carboxamide] | < 10
< 10 | < 10 | < 10 | < 10 | Cn1cc(-c2cc(Oc3ccc(NC(=O)NC(=O)CC4CC5CCC4C5)nc3)ccn2)cn1 (centres unmarked) [Example 62, 2-(bicyclo[2.2.1]heptan-2-yl)-N-((5-((2-(1-methyl-1H-pyrazol-4-yl)pyridin-4-yl)oxy)pyridin-2-yl)carbamoyl)acetamide] | < 10
10 to 100 | 100 to 1000 | < 10 | < 10 | Cc1cc(NC(=O)NC(=O)C(C)C)ncc1Oc1ccnc(-c2cnn(C)c2)c1 [Example 88, N-((4-methyl-5-((2-(1-methyl-1H-pyrazol-4-yl)pyridin-4-yl)oxy)pyridin-2-yl)carbamoyl)isobutyramide] | < 10
< 10 | 10 to 100 | < 10 | 10 to 100 | Cn1cc(-c2cc(Oc3ccc(NC(=O)NC(=O)C4CC5CCC4CC5)nc3)ccn2)cn1 (centres unmarked) [Example 74, N-((5-((2-(1-methyl-1H-pyrazol-4-yl)pyridin-4-yl)oxy)pyridin-2-yl)carbamoyl)bicyclo[2.2.2]octane-2-carboxamide] | < 10
